Reference: ChEMBL document CHEMBL5143723, “Orally Bioavailable Enzymatic Inhibitor of CD38, MK-0159, Protects against Ischemia/Reperfusion Injury in the Murine Heart” (J Med Chem, 2022)
In brackets after ≈: the same amount, converted by molar mass. Values belong to the compound of their own block, whether it stands above or below them. Activity calls are given as the source filed them. The calls are words filed in the database; no cut-off is given here.

Assays:
[1] = Drug exposure in mouse plasma assessed as AUC of drug at 3 mg/kg, po; type: ADME, organism-based; set-up: dose 3 mg/kg, route po
[2] = target: T1, ADP-ribosyl cyclase/cyclic ADP-ribose hydrolase 1 (Mus musculus, UniProt P56528); assay: Inhibition of mouse his tagged CD38 using N6-etheno-NAD as substrate by fluorescence microplate reader assay
T1 sequence (P56528 whole entry): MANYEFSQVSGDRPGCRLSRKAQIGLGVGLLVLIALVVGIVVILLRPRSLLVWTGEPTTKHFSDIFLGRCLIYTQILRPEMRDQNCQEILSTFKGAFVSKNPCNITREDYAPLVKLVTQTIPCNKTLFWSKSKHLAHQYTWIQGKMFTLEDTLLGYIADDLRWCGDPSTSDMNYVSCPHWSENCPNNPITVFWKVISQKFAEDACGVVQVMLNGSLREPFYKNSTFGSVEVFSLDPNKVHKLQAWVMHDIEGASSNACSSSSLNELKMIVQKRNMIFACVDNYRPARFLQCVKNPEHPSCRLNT

[3] = target: T2, ADP-ribosyl cyclase/cyclic ADP-ribose hydrolase 1 (Rattus norvegicus, UniProt Q64244); assay: Inhibition of rat CD38 using N6-etheno-NAD as substrate by fluorescence microplate reader assay
T2 sequence (Q64244 whole entry): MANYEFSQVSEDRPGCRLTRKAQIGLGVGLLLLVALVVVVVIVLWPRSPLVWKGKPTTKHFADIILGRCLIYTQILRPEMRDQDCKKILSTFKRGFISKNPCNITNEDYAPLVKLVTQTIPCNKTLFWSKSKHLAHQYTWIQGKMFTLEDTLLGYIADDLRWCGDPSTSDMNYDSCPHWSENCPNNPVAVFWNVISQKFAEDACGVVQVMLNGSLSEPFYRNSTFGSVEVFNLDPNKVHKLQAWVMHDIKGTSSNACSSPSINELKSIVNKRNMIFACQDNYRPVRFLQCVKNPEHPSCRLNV

[4] = Kinetic aqueous solubility of the compound; type: physicochemical; settings: buffer; read-out: Kinetic_solubility
[5] = Thermodynamic aqueous solubility of the compound; type: physicochemical; settings: buffer; read-out: Therm_solubility
[6] = Apparent permeability of compound across apical to basal membrane in human Caco-2 cells; type: ADME, cell-based
[7] = Apparent permeability of compound across basolateral to apical side in human Caco-2 cells; type: ADME, cell-based
[8] = Plasma protein binding in mouse; type: ADME, cell-free; settings: read-out: PPB (converted)
[9] = Plasma protein binding in rat; type: ADME, cell-free; settings: read-out: PPB (converted)
[10] = Plasma protein binding in human; type: ADME, cell-free; settings: read-out: PPB (converted)
CYP1A2 = target: T3, CYP1A2 (Homo sapiens, UniProt P05177); assay: Inhibition of CYP1A2 (unknown origin) at 10 uM relative to control; type: ADME
T3 sequence (P05177 whole entry): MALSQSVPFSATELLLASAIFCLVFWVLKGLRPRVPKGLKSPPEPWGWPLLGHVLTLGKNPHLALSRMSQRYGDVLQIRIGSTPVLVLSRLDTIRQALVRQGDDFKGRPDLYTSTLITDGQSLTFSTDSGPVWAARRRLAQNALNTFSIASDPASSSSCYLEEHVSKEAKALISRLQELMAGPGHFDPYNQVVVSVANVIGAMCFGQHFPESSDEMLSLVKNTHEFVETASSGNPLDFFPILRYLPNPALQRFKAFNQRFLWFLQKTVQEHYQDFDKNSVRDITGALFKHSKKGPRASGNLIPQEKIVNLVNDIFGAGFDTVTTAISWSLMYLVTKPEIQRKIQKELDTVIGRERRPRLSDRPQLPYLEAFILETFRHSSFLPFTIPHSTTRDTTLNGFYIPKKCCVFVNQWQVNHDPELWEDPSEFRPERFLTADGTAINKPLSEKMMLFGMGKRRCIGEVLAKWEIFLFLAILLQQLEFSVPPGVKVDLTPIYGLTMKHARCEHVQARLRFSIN

CYP2C8 = target: T4, CYP2C8 (Homo sapiens, UniProt P10632); assay: Inhibition of CYP2C8 (unknown origin) at 10 uM relative to control; type: ADME
T4 sequence (P10632 whole entry): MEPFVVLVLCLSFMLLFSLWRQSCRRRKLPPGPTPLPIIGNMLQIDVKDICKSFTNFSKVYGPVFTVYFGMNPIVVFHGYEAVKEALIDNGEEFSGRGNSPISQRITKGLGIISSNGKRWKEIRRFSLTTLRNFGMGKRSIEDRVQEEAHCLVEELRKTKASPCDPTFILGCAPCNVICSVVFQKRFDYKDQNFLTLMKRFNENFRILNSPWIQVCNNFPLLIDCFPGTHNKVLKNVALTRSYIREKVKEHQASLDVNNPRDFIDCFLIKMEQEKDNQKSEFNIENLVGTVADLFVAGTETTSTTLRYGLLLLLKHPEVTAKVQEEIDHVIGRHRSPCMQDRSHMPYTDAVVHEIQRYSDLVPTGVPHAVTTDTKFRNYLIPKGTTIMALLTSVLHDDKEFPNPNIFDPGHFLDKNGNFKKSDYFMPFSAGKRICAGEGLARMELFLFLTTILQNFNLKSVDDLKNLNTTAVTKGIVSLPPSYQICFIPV

CYP2C9 = CYP2C9 (Homo sapiens, UniProt P11712); assay: Inhibition of CYP2C9 (unknown origin) at 10 uM relative to control; type: ADME
CYP2C9, sequence (P11712 whole entry): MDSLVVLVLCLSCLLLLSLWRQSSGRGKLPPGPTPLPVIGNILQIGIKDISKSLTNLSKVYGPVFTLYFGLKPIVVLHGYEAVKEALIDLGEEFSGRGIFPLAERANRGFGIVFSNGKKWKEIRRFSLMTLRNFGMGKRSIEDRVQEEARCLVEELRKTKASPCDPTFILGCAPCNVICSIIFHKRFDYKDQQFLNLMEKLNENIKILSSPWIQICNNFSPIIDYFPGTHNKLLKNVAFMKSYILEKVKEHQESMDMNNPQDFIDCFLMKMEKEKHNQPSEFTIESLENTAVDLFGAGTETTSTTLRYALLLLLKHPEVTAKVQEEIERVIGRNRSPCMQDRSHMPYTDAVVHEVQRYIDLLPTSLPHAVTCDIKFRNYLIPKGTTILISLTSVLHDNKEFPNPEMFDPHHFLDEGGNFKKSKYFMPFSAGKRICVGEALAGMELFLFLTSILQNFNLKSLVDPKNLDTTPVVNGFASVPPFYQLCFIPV

CYP2C19 = CYP2C19 (Homo sapiens, UniProt P33261); assay: Inhibition of CYP2C19 (unknown origin) at 10 uM relative to control; type: ADME
CYP2C19, sequence (P33261 whole entry): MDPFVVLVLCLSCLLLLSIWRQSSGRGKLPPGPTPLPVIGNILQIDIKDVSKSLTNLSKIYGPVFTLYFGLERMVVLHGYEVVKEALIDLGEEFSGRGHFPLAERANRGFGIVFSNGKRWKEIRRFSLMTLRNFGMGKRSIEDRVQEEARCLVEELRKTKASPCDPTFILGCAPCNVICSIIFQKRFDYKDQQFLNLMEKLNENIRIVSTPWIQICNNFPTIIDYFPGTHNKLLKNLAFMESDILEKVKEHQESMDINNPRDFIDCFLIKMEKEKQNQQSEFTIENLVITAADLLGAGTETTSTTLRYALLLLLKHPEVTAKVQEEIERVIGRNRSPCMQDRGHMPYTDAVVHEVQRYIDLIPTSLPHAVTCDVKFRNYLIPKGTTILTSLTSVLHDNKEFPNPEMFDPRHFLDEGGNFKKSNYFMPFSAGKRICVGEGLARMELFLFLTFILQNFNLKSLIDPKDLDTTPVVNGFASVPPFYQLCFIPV

CYP2D6 = CYP2D6 (Homo sapiens, UniProt P10635); assay: Inhibition of CYP2D6 (unknown origin) at 10 uM relative to control; type: ADME
CYP2D6, sequence (P10635 whole entry): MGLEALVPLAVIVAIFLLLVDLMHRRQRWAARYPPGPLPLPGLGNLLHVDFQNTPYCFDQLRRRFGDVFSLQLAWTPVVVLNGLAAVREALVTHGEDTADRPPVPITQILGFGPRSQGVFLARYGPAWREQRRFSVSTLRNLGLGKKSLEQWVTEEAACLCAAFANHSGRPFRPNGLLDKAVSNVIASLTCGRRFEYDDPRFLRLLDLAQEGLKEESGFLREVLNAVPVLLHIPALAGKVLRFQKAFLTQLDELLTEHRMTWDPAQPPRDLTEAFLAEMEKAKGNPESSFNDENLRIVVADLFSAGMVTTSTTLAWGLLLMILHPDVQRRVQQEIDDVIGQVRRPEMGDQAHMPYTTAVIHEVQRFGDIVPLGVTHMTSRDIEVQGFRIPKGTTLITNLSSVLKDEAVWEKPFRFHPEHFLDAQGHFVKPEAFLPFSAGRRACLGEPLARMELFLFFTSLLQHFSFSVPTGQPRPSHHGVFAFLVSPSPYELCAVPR

hERG = hERG (Homo sapiens, UniProt Q12809); assay: Inhibition of hERG (unknown origin) at 10 uM by patch clamp method; type: toxicity
hERG, sequence (Q12809 whole entry): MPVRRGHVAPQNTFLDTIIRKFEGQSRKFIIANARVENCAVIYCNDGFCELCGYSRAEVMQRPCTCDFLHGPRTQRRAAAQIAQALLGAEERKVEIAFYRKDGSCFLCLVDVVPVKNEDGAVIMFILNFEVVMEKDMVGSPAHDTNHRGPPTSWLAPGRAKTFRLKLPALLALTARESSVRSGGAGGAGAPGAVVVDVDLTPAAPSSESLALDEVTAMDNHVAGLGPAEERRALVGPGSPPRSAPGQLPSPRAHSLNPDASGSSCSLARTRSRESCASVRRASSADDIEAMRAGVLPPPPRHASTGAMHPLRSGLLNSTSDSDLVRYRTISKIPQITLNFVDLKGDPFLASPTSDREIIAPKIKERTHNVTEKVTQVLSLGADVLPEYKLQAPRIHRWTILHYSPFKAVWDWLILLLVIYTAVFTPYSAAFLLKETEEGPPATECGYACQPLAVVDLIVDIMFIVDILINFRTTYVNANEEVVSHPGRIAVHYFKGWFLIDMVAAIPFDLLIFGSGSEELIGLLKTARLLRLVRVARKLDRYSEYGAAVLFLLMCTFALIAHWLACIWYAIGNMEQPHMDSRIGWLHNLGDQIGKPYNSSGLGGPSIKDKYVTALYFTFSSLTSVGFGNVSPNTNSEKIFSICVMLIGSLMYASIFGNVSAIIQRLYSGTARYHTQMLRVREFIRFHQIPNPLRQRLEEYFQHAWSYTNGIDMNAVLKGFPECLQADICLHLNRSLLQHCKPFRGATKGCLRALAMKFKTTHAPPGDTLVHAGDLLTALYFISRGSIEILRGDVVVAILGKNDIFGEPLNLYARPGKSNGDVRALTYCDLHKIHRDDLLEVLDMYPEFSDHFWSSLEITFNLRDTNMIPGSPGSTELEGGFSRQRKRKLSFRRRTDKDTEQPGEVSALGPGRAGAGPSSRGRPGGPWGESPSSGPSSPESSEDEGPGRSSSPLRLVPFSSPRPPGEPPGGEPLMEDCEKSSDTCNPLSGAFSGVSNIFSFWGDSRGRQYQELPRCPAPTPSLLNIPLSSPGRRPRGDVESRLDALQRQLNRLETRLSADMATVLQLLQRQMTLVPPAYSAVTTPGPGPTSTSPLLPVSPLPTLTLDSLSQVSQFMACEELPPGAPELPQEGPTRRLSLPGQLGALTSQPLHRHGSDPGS

[11] = Half life in CD-1 mouse at 1 mg/kg, iv; type: ADME, organism-based; settings: in vivo
[12] = Volume of distribution at steady state in CD-1 mouse at 1 mg/kg, iv; type: ADME, organism-based; settings: in vivo
[13] = AUC in CD-1 mouse at 1 mg/kg, iv; type: ADME, organism-based; set-up: dose 1 mg/kg, route iv; settings: in vivo
[14] = Half life in CD-1 mouse at 3 mg/kg, po; type: ADME, organism-based; settings: in vivo
[15] = Cmax in CD-1 mouse at 3 mg/kg, po; type: ADME, organism-based; set-up: dose 3 mg/kg, route po; settings: in vivo
[16] = AUC in CD-1 mouse at 3 mg/kg, po; type: ADME, organism-based; set-up: dose 3 mg/kg, route po; settings: in vivo
[17] = Half life in Sprague-Dawley rat at 1 mg/kg, iv; type: ADME, organism-based; settings: in vivo
[18] = Volume of distribution at steady state in Sprague-Dawley rat at 1 mg/kg, iv; type: ADME, organism-based; settings: in vivo
[19] = AUC in Sprague-Dawley rat at 1 mg/kg, iv; type: ADME, organism-based; set-up: dose 1 mg/kg, route iv; settings: in vivo
[20] = Half life in Sprague-Dawley rat at 10 mg/kg, po; type: ADME, organism-based; settings: in vivo
[21] = Cmax in Sprague-Dawley rat at 10 mg/kg, po; type: ADME, organism-based; set-up: dose 10 mg/kg, route po; settings: in vivo
[22] = AUC in Sprague-Dawley rat at 10 mg/kg, po; type: ADME, organism-based; set-up: dose 10 mg/kg, route po; settings: in vivo
[23] = Half life in non-human primates at 1 mg/kg, iv; type: ADME, organism-based; settings: in vivo
[24] = Volume of distribution at steady state in non-human primates at 1 mg/kg, iv; type: ADME, organism-based; settings: in vivo, read-out: Vdss
[25] = AUC in non-human primates at 1 mg/kg, iv; type: ADME, organism-based; set-up: dose 1 mg/kg, route iv; settings: in vivo
[26] = Half life in non-human primates at 1 mg/kg, po; type: ADME, organism-based; settings: in vivo
[27] = Cmax in non-human primates at 1 mg/kg, po; type: ADME, organism-based; set-up: dose 1 mg/kg, route po; settings: in vivo
[28] = AUC in non-human primates at 1 mg/kg, po; type: ADME, organism-based; set-up: dose 1 mg/kg, route po; settings: in vivo
[29] = Oral bioavailability in non-human primates at 1 mg/kg; type: ADME, organism-based; settings: in vivo
[30] = Plasma concentration in CD1 mouse at 10 to 90 mg/kg, via oral gavage by LC-MS/MS analysis; type: ADME, organism-based; settings: in vivo, DDE = dose-dependent effect, dose 10-90 mg/kg
[31] = Plasma concentration in Sprague-Dawley rat at 10 to 90 mg/kg, via oral gavage by LC-MS/MS analysis; type: ADME, organism-based; settings: in vivo, DDE = dose-dependent effect, dose 10-90 mg/kg
[32] = In vivo inhibition of CD38 in po dosed mouse assessed as reduction in ADPR level in blood mg/kg measured after 6 hrs; type: functional, organism-based
[33] = In vivo inhibition of CD38 in po dosed mouse assessed as reduction in ADPR level in heart measured after 6 hrs; type: functional, organism-based
Mus musculus [34] = organism: Mus musculus; settings: dose 3-30 mg/kg, route po, time 6.0 hrs
Mus musculus [35] = organism: Mus musculus; settings: dose 3-30 mg/kg, route po, time 6.0 hrs; remark: listed apart in the source
Mus musculus [36] = organism: Mus musculus; settings: dose 3-30 mg/kg, route po, time 6.0 hrs; remark: listed apart in the source
Mus musculus [37] = organism: Mus musculus; settings: dose 3-30 mg/kg, route po, time 6.0 hrs; remark: listed apart in the source
Mus musculus [38] = organism: Mus musculus; settings: C57BL/6, dose 30.0 mg/kg, route po, time 4.0 hrs
Mus musculus [39] = organism: Mus musculus; settings: C57BL/6, dose 30.0 mg/kg, route po, time 4.0 hrs; remark: listed apart in the source
Mus musculus [40] = organism: Mus musculus; settings: C57BL/6, dose 30.0 mg/kg, route po, time 4.0 hrs; remark: listed apart in the source
Mus musculus [41] = organism: Mus musculus; settings: C57BL/6, dose 30.0 mg/kg, route po
Description: In vivo inhibition of CD38 in myocardial ischemia/reperfusion induced C57BL/6 mouse injury model assessed as change in cardiac NAD+ level at 30 mg/kg via oral gavage

[42] = target: T5, ADP-ribosyl cyclase/cyclic ADP-ribose hydrolase 1 (Homo sapiens, UniProt P28907)
T5 sequence (P28907 whole entry): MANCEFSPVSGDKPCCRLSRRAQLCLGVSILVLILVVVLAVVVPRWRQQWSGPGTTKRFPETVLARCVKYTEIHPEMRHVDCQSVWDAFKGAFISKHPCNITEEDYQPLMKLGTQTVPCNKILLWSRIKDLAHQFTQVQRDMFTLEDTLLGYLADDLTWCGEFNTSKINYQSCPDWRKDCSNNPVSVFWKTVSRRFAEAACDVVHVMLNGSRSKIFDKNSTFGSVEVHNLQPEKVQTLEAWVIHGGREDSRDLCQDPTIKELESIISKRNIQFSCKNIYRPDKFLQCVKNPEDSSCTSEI
Description: Inhibition of human his tagged CD38 using N6-etheno-NAD as substrate by fluorescence microplate reader assay

Compound: COCCO[C@H]1CC[C@H](NC(=O)c2cc(-c3cscn3)cc3cc[nH]c23)CC1
IC50 [42]: > 100000 nM

Compound: COCCO[C@H]1CC[C@H](NC(=O)c2cc(-n3ccnc3C)cc3cc[nH]c23)CC1
IC50 [42]: > 100000 nM

Compound: COCCO[C@H]1CC[C@H](NC(=O)c2cc(-c3cncs3)cn3ccnc23)CC1
IC50 [42]: > 100000 nM

Compound: COCCO[C@H]1CC[C@H](NC(=O)c2cc(-c3cccnn3)cc3cc[nH]c23)CC1
IC50 [42]: > 100000 nM

Further lines, with some results ahead:

AUC [1]: 10400 ng·h/mL
IC50 [2]: 3 nM
IC50 [3]: 70 nM
solubility kinetic [4]: 25 µM (≈ 10 µg/mL)
solubility thermodynamic [5]: 10 µg/mL (≈ 25 µM)
Papp A→B [6]: 17.5 ×10⁻⁶ cm/s
Papp B→A [7]: 29.6 ×10⁻⁶ cm/s
fraction unbound [8]: 0.206
fraction unbound [9]: 0.047
fraction unbound [10]: 0.209
inhibition at 10 µM (CYP1A2): < 15%
inhibition at 10 µM (CYP2C8): < 15%
inhibition at 10 µM (CYP2C9): < 15%
inhibition at 10 µM (CYP2C19): < 15%
inhibition at 10 µM (CYP2D6): < 15%
t1/2 [11]: 1 h
Vdss [12]: 1.1 L/kg
AUC [13]: 1295 ng·h/mL
half-life [14]: 1.2 h
Cmax [15]: 4230 ng/mL
AUC [16]: 10400 ng·h/mL
t1/2 [17]: 3 h
Vdss [18]: 9 L/kg
AUC [19]: 4810 ng·h/mL
half-life [20]: 2.7 h
Cmax [21]: 9.91 ng/mL
AUC [22]: 60400 ng·h/mL
half-life [23]: 3.1 h
Vd [24]: 0.9 L/kg
AUC [25]: 1670 ng·h/mL
half-life [26]: 3 h
Cmax [27]: 710 ng/mL
AUC [28]: 1740 ng·h/mL
bioavailability [29]: 100%
Activity [30]: Dde
Activity [31]: Dde
EC50 [32]: 40 nM
EC50 [33]: 181 nM
Compound: COCCO[C@H]1CC[C@H](NC(=O)c2cc(-c3cncs3)nc3[nH]ccc23)CC1
inhibition at 10 µM (hERG): < 10%
inhibition (Mus musculus [34]): Active
inhibition (Mus musculus [35]): Active
inhibition (Mus musculus [36]): Active
inhibition (Mus musculus [37]): Active
inhibition (Mus musculus [38]): Active
inhibition (Mus musculus [39]): Active
inhibition (Mus musculus [40]): Active
inhibition (Mus musculus [41]): Active

AUC [1]: 6820 ng·h/mL
Compound: COCCO[C@H]1CC[C@H](NC(=O)c2cc(-c3cncs3)nc3cc[nH]c23)CC1

AUC [1]: 7380 ng·h/mL
Compound: COCCO[C@H]1CC[C@H](NC(=O)c2cc(-c3cncs3)cc3cc[nH]c23)CC1

IC50 [42]: 6000 nM
Compound: COCCO[C@H]1CC[C@H](CNC(=O)c2cc(-c3cncs3)cc3[nH]ccc23)CC1
